Test results reported in publication PMC10743905, “Design, Synthesis, and In Vitro and In Vivo Bioactivity Studies of Hydrazide–Hydrazones of 2,4-Dihydroxybenzoic Acid” (International Journal of Molecular Sciences, 2023).
In brackets after ≈: the same amount, converted by molar mass.

Columns and labels:
[1] = test system: Micrococcus luteus ATCC 10240; test: Broth microdilution MIC/MBC; format: cell-based; conditions: for MBC: ATCC10240; for MIC: ATCC10240, read-out: MIC
Excerpt: (§1) In vitro antimicrobial activity assays - Methodology
(§2) The examined compounds 1 - 24 were screened in vitro for antibacterial and antifungal activities using the broth microdilution method according to procedure reported earlier by our research group and European Committee on Antimicrobial Susceptibility Testing (EUCAST) and Clinical and Laboratory Standards Institute (CLSI) guidelines against a panel of reference and clinical or saprophytic strains of microorganisms, in-cluding Gram-positive bacteria, Staphylococcus aureus ATCC 43300 (Methicillin Resistant S. aureus – MRSA), Staphylococcus aureus ATCC 29213 (Methicillin Susceptible S. aureus – MSSA), Staphylococcus epidermidis ATCC 12228, Enterococcus faecalis ATCC 29212, Micro-coccus luteus ATCC 10240, Bacillus subtilis ATCC 6633 and Bacillus cereus ATCC 10876), Gram-negative bacteria (Bordetella bronchiseptica ATCC 4617, Escherichia coli ATCC 25922, Klebsiella pneumoniae ATCC 13883, Proteus mirabilis ATCC 12453, Salmonella typhimurium ATCC 14028 and Pseudomonas aeruginosa ATCC 9027) and fungi belonging to yeasts (Can-dida albicans ATCC 10231, Candida albicans ATCC 2091, Candida parapsilosis ATCC 22019, Candida glabrata ATCC 90030 and Candida krusei ATCC 14243). The microorganisms be-longing to ATCC came from American Type Culture Collection, routinely used for the evaluation of antimicrobials. […]
(§3) Samples containing examined compounds were dissolved in dimethyl sulfoxide (DMSO). […]
(§4) Subsequently, the MIC (Minimal Inhibitory Concentration) of the compounds was ex-amined by the microdilution broth method, using their two-fold dilutions in Mueller- […]
(§5) Hinton broth or (for bacteria) and RPMI 1640 broth with MOPS (for fungi) prepared in 96-well polystyrene plates. Final concentrations of the compounds ranged from 1000 to 0.488 µg/ml. Microbial suspensions were prepared in 0.85% NaCl with an optical density of 0.5 McFarland standard. Next each bacterial or fungal suspension was added per each well containing broth and various concentrations of the examined compounds. After incuba-

[2] = test system: Proteus mirabilis ATCC 12453; test: Broth microdilution MIC/MBC; format: cell-based; conditions: ATCC12453
Excerpt: as §1, §2, §3, §4, §5

[3] = test system: Pseudomonas aeruginosa ATCC 9027; test: Broth microdilution MIC/MBC; format: cell-based; conditions: ATCC9027
Excerpt: as §1, §2, §3, §4, §5

[4] = test system: Salmonella typhimurium ATCC 14028; test: Broth microdilution MIC/MBC; format: cell-based; conditions: Salmonella enterica
Excerpt: as §1, §2, §3, §4, §5

[5] = test system: Staphylococcus aureus ATCC 29213; test: Broth microdilution MIC/MBC; format: cell-based
Excerpt: as §1, §2, §3, §4, §5

[6] = test system: Staphylococcus aureus ATCC 43300; test: Broth microdilution MIC/MBC; format: cell-based; conditions: Staphylococcus aureus ATCC 43300 (MRSA)
Excerpt: as §1, §2, §3, §4, §5

[7] = test system: Staphylococcus epidermidis ATCC 12228; test: Broth microdilution MIC/MBC; format: cell-based; conditions: ATCC12228, read-out: MIC
Excerpt: as §1, §2, §3, §4, §5

[8] = test system: Bacillus subtilis ATCC 6633; test: Broth microdilution MIC/MBC; format: cell-based; conditions: for MIC: ATCC6633, read-out: MIC
Excerpt: Detailed procedures are presented in the Supplementary Materials. […]
as §1
as §2, with “antimicrobials. All the used microbial cultures were first subcultured on nu-trient agar or Sabouraud agar at 35°C for 18-24 h or 30°C for 24-48 h for bacteria and fungi,” for “antimicrobials.”
(§6) The surface of Mueller-Hinton agar (for bacteria) and RPMI 1640 with MOPS (for fungi) were inoculated with the suspensions of bacterial or fungal species. Microbial suspensions were prepared in sterile saline with an optical density of McFarland standard scale 0.5.
(§7) Samples containing examined compounds were dissolved in dimethyl sulfoxide (DMSO).
(§8) Furthermore, bacterial and fungal suspensions were put onto Petri dishes with solid me-dia containing 2 mg/mL of the tested compounds followed incubation at 37°C for 24h and 30°C for 48h for bacteria and fungi, respectively. The inhibition of microbial growth was judged by comparison with a control culture prepared without any sample tested. Ciprof-loxacin, vancomycin, nitrofurantoin, cefuroxime, ampicillin or nystatin (Sigma) were used as a reference antibacterial or antifungal compounds, respectively.
as §4, §5

[9] = test system: Bacillus cereus ATCC 10876; test: Broth microdilution MIC/MBC; format: cell-based; conditions: for MIC: ATCC10876, read-out: MIC
Excerpt: as §1
as §2, with “antimicrobials. All the used microbial cultures were first subcultured on nu-trient agar or Sabouraud agar at 35°C for 18-24 h or 30°C for 24-48 h for bacteria and fungi,” for “antimicrobials.”
as §6, §7, §8, §4, §5

[10] = test system: Bordetella bronchiseptica ATCC 4617; test: Broth microdilution MIC/MBC; format: cell-based; conditions: ATCC4617
Excerpt: as §1
as §2, with “antimicrobials. All the used microbial cultures were first subcultured on nu-trient agar or Sabouraud agar at 35°C for 18-24 h or 30°C for 24-48 h for bacteria and fungi,” for “antimicrobials.”
as §6, §7, §8, §4, §5

[11] = test system: Enterococcus faecalis ATCC 29212; test: Broth microdilution MIC/MBC; format: cell-based; conditions: for MIC: ATCC29212, read-out: MIC
Excerpt: as §1
as §2, with “antimicrobials. All the used microbial cultures were first subcultured on nu-trient agar or Sabouraud agar at 35°C for 18-24 h or 30°C for 24-48 h for bacteria and fungi,” for “antimicrobials.”
as §6, §7, §8, §4, §5

[12] = test system: Escherichia coli ATCC 25922; test: Broth microdilution MIC/MBC; format: cell-based; conditions: ATCC25922
Excerpt: as §1
as §2, with “antimicrobials. All the used microbial cultures were first subcultured on nu-trient agar or Sabouraud agar at 35°C for 18-24 h or 30°C for 24-48 h for bacteria and fungi,” for “antimicrobials.”
as §6, §7, §8, §4, §5

[13] = test system: Klebsiella pneumoniae ATCC 13883; test: Broth microdilution MIC/MBC; format: cell-based; conditions: ATCC13883
Excerpt: as §1
as §2, with “antimicrobials. All the used microbial cultures were first subcultured on nu-trient agar or Sabouraud agar at 35°C for 18-24 h or 30°C for 24-48 h for bacteria and fungi,” for “antimicrobials.”
as §6, §7, §8, §4, §5

[14] = test system: Candida albicans ATCC 10231; test: Broth microdilution MIC/MFC; format: cell-based; conditions: for MIC: ATCC10231, read-out: MIC
Excerpt: as §1
as §2, with “antimicrobials. All the used microbial cultures were first subcultured on nu-trient agar or Sabouraud agar at 35°C for 18-24 h or 30°C for 24-48 h for bacteria and fungi,” for “antimicrobials.”
as §6, §7, §8, §4, §5

[15] = test system: Candida albicans ATCC 2091; test: Broth microdilution MIC/MFC; format: cell-based; conditions: for MIC: ATCC2091, read-out: MIC
Excerpt: as §1
as §2, with “antimicrobials. All the used microbial cultures were first subcultured on nu-trient agar or Sabouraud agar at 35°C for 18-24 h or 30°C for 24-48 h for bacteria and fungi,” for “antimicrobials.”
as §6, §7, §8, §4, §5

[16] = test system: Candida glabrata ATCC 90030; test: Broth microdilution MIC/MFC; format: cell-based; conditions: Nakaseomyces glabratus, ATCC90030, read-out: MIC
Excerpt: as §1
as §2, with “antimicrobials. All the used microbial cultures were first subcultured on nu-trient agar or Sabouraud agar at 35°C for 18-24 h or 30°C for 24-48 h for bacteria and fungi,” for “antimicrobials.”
as §6, §7, §8, §4, §5

[17] = test system: Candida krusei ATCC 14243; test: Broth microdilution MIC/MFC; format: cell-based; conditions: Pichia kudriavzevii, ATCC14243, read-out: MIC
Excerpt: as §1
as §2, with “antimicrobials. All the used microbial cultures were first subcultured on nu-trient agar or Sabouraud agar at 35°C for 18-24 h or 30°C for 24-48 h for bacteria and fungi,” for “antimicrobials.”
as §6, §7, §8, §4, §5

[18] = test system: Candida parapsilosis ATCC 22019; test: Broth microdilution MIC/MFC; format: cell-based; conditions: Lodderomyces parapsilosis, ATCC22019, read-out: MIC
Excerpt: as §1
as §2, with “antimicrobials. All the used microbial cultures were first subcultured on nu-trient agar or Sabouraud agar at 35°C for 18-24 h or 30°C for 24-48 h for bacteria and fungi,” for “antimicrobials.”
as §6, §7, §8, §4, §5

Row | MBC/MIC [1] | MIC [1] | MIC [2] | MIC [3] | MIC [4] | MIC ([5]; ATCC29213) | MIC [6] | MIC [7] | MIC [8] | MIC [9] | MIC [10] | MIC [11] | MIC [12] | MIC [13] | MIC [14] | MIC [15] | MIC [16] | MIC [17] | MIC [18] | SMILES | MBC [1] | other results
1 | > 2 | 500 mg/L (≈ 1.85 mM) | > 1000 mg/L | > 1000 mg/L | > 1000 mg/L | > 1000 mg/L | > 1000 mg/L | > 1000 mg/L | > 1000 mg/L | > 1000 mg/L | > 1000 mg/L | > 1000 mg/L | > 1000 mg/L | > 1000 mg/L | > 1000 mg/L | > 1000 mg/L | > 1000 mg/L | > 1000 mg/L | > 1000 mg/L | Cc1ccc(/C=N/NC(=O)c2ccc(O)cc2O)cc1 [Compound 3, 2,4-dihydroxy-N-[(4-methylphenyl)methylidene]benzohydrazide] | > 1000 mg/L | melting point: 248 °C
2 | > 2 | 500 mg/L (≈ 1.66 mM) | > 1000 mg/L | > 1000 mg/L | > 1000 mg/L | 1000 mg/L (≈ 3.33 mM) | > 1000 mg/L | > 1000 mg/L | 500 mg/L (≈ 1.66 mM) | 500 mg/L (≈ 1.66 mM) | > 1000 mg/L | 1000 mg/L (≈ 3.33 mM) | > 1000 mg/L | > 1000 mg/L | 1000 mg/L (≈ 3.33 mM) | 500 mg/L (≈ 1.66 mM) | > 1000 mg/L | > 1000 mg/L | > 1000 mg/L | CCOc1ccc(/C=N/NC(=O)c2ccc(O)cc2O)cc1 [Compound 5, N-[(4-ethoxyphenyl)methylidene]-2,4-dihydroxybenzohydrazide] | > 1000 mg/L | MBC/MIC [5]: > 1; MBC ([5]; ATCC29213): > 1000 mg/L; MBC/MIC [8]: > 2; MBC ([8]; ATCC6633): > 1000 mg/L; MBC/MIC [9]: > 2; MBC ([9]; ATCC10876): > 1000 mg/L; MBC/MIC [11]: > 1; MBC ([11]; ATCC29212, read-out: MBC): > 1000 mg/L; MFC/MIC [14]: > 1; MFC ([14]; ATCC10231, read-out: MFC): > 1000 mg/L; MFC/MIC [15]: > 2; MFC ([15]; ATCC2091, read-out: MFC): > 1000 mg/L; melting point: 248 °C
